Measurements from patent publication US20260271978A1, “USE OF FATTY ACIDS TO MODIFY FLAVOR” (Firmenich Incorporated, priority 2023, published 2026).

Columns and labels:
[1] = Sensory panel rating of oat/pea protein blend solution at 3% with fatty acid at 400 ppm; settings: 400 ppm in oat/pea protein blend (1:14 w/w), about 3 wt% in water, no sugar; mean of eight panelists, scale 0 to 5
Description: (§1) Liquid solutions of a blend of oat and pea protein (1:14 w/w) were prepared (about 3 percent by weight in water) without sugar added. Control and test samples were prepared. To the test sample 10-undecenoic acid was added at a concentration of 400 ppm. The control and test samples were evaluated by eight sensory panelists to rate various characteristics of the control sample and the test sample on a scale from 0 to 5.

[2] = Sensory panel rating of fava bean protein solution at 6% with fatty acid at 400 ppm; settings: 400 ppm in fava bean protein, 6 wt% in water, no sugar; mean of 18 panelists, scale 0 to 5
Description: as §1, with “of fava bean” for “of a blend of oat and pea”, “protein” for “protein (1:14 w/w)”, “prepared (6” for “prepared (about 3”, “by 18” for “by eight”

[3] = Sensory panel rating of pea protein solution at 3% with fatty acid at 1000 ppm; settings: 1000 ppm in pea protein, 3 wt% in water, no sugar; mean of eight panelists, scale 0 to 5
Description: as §1, with “of” for “of a blend of oat and”, “protein” for “protein (1:14 w/w)”, “(3” for “(about 3”, “1000” for “400”

[4] = Sensory panel rating of pea protein solution at 3% with fatty acid at 700 ppm; settings: 700 ppm in pea protein, 3 wt% in water, no sugar; mean of eight panelists, scale 0 to 5
Description: as §1, with “of” for “of a blend of oat and”, “protein” for “protein (1:14 w/w)”, “(3” for “(about 3”, “700” for “400”

[5] = Sensory panel rating of chickpea protein solution at 6% with fatty acid at 700 ppm; settings: 700 ppm in chickpea protein, 6 wt% in water, no sugar; mean of 18 panelists, scale 0 to 5
Description: as §1, with “of xchickpea” for “of a blend of oat and pea”, “protein” for “protein (1:14 w/w)”, “prepared (6” for “prepared (about 3”, “of 700” for “of 400”, “by 18” for “by eight”

[6] = Sensory panel rating of oat/pea protein blend solution at 6% with fatty acid at 400 ppm; settings: 400 ppm in oat/pea protein blend (1:28 w/w), about 6 wt% in water, no sugar; mean of eight panelists, scale 0 to 5
Description: as §1, with “(1:28” for “(1:14”, “6” for “3”

C=CCCCCCCCCC(=O)O [10-undecenoic acid, Undec-10-enoic acid]
Astringent [1]: 1.8 | Bitter [1]: 1.7 | Cereal Note [1]: 2.5 | Creaminess [1]: 1.6 | Fattiness [1]: 1.4 | Green/Vegetal Note [1]: 2.1 | Mouthcoating [1]: 2.0 | Sweet [1]: 3.6 | Thickness [1]: 1.9 | Astringent [2]: 3.2 | Bitter [2]: 2.4 | Cereal Note [2]: 2.3 | Creaminess [2]: 1.2 | Fattiness [2]: 1.3 | Green/Vegetal Note [2]: 2.7 | Mouthcoating [2]: 1.8 | Sweet [2]: 2.3 | Thickness [2]: 1.2 | Astringent [3]: 2.1 | Bitter [3]: 1.7 | Cereal Note [3]: 2.7 | Creaminess [3]: 2.1 | Fattiness [3]: 2.0 | Green/Vegetal Note [3]: 2.0 | Mouthcoating [3]: 2.9 | Sweet [3]: 3.4 | Thickness [3]: 2.1 | Astringent [4]: 2.6 | Bitter [4]: 2.1 | Cereal Note [4]: 2.4 | Creaminess [4]: 1.8 | Fattiness [4]: 1.9 | Green/Vegetal Note [4]: 2.4 | Mouthcoating [4]: 2.3 | Sweet [4]: 3.1 | Thickness [4]: 2.0 | Astringent [5]: 2.4 | Bitter [5]: 2.1 | Cereal Note [5]: 2.7 | Creaminess [5]: 2.3 | Fattiness [5]: 1.9 | Green/Vegetal Note [5]: 2.8 | Mouthcoating [5]: 2.4 | Sweet [5]: 2.8 | Thickness [5]: 1.6 | Astringent [6]: 1.8 | Bitter [6]: 1.8 | Cereal Note [6]: 2.8 | Creaminess [6]: 2.4 | Fattiness [6]: 2.3 | Green/Vegetal Note [6]: 2.3 | Mouthcoating [6]: 3.3 | Sweet [6]: 3.1 | Thickness [6]: 2.9
